Measurements from PubChem BioAssay (NCI).
Where “and” joins values, the source holds several entries; their conditions need not be identical. Equal entries are not always repeated.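 1) Cells in 96-well plates. 2) Compound, 48 h, 5 concentrations. 3) Linear interpolation between surrounding doses. 4) Unreached endpoint = highest concentration. Here, GI50 denotes the concentration required for 50% inhibition of growth. TGI is the concentration that stops growth completely.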 *1 amine or outer side, *2 acyl side, *3 side chain or, on linkers, in order; H or OH if unused. Where a SMILES comes first, the peptide text is derived from it. Bridges are numbered along the chain shown (N, C = ends). Roman numbers before positions name the chains, in order. [ ]: non-standard residue; d: D form. Actinocin(9to1) = Cc1c2oc3c(C)ccc(C(=O)[*:1])c3nc-2c(C(=O)[*:2])c(N)c1=O; NMeT = CN[CH](C(=O)O)[CH](C)O; Sar = CNCC(=O)O

How the values were obtained:
Test in all cases: DTP human tumour cell line panel, 48 h
HCC-2998 colon = tested on: HCC-2998 colon
HOP-62 NSCLC = tested on: HOP-62 NSCLC
MCF7 breast = tested on: MCF7 breast
MDA-MB-231 breast = tested on: MDA-MB-231 breast
NCI-H23 lung = tested on: NCI-H23 lung
OVCAR-3 ovarian = tested on: OVCAR-3 ovarian
SF-295 CNS = tested on: SF-295 CNS
SN12C renal = tested on: SN12C renal
U251 CNS = tested on: U251 CNS
UO-31 renal = tested on: UO-31 renal

Compound	GI50 (HCC-2998 colon)	TGI (HCC-2998 colon) [µM]	GI50 (HOP-62 NSCLC) [µM]	TGI (HOP-62 NSCLC) [µM]	GI50 (MCF7 breast) [µM]	TGI (MCF7 breast) [µM]	GI50 (MDA-MB-231 breast)	TGI (MDA-MB-231 breast) [µM]	GI50 (NCI-H23 lung) [µM]	TGI (NCI-H23 lung)	GI50 (OVCAR-3 ovarian)	TGI (OVCAR-3 ovarian)	GI50 (SF-295 CNS) [µM]	TGI (SF-295 CNS) [µM]	GI50 (SN12C renal) [µM]	TGI (SN12C renal)	GI50 (U251 CNS) [µM]	TGI (U251 CNS)	GI50 (UO-31 renal)	TGI (UO-31 renal)
Cc1ccc(Cc2cnc(NC(=O)/C=C/c3cccc(C)c3)s2)cc1	0.296 µM	> 37.1	0.238	9.3	0.103	> 100	0.397 µM	5.08	0.322	> 50.1 µM	0.0634 µM	0.725 µM	0.0786	0.558	0.393	> 56 µM	0.144	4.97 µM	0.395 µM	9.54 µM
C=C(C)[C@@H]1CC[C@]2(C(=O)O)CC[C@]3(C)[C@H](CC[C@@H]4[C@@]5(C)CCC(NC(=O)c6cccc(OC(C)=O)c6OC(C)=O)C(C)(C)[C@@H]5CC[C@]43C)[C@@H]12 (some centres not stated)	1.57 µM	4.51	0.785	3.3	0.586	6.42	1.09 µM	3.88	0.615	4.62 µM	1.04 µM	3.26 µM	0.562	3.89	0.94	> 100 µM	0.52	14.5 µM	0.283 µM	1.43 µM
Cc1nc2sc(C(=O)Nc3cccc4ccccc34)c(N)c2cc1C(O)c1ccccc1 (configuration not stated)	0.193 µM	2.89	0.081	19.1	0.0373	13.4	0.15 µM	5.36	0.104	15.3 µM	0.0317 µM	0.0976 µM	0.0513	4.42	0.0971	9.49 µM	0.0499	13.5 µM	0.283 µM	14.2 µM
O=C(O)c1ccc(Oc2nccc(-c3c(-c4ccc(F)cc4)ncn3C3CCNCC3)n2)cc1	> 25 µM	> 25	> 25	> 25	> 25	> 25	> 25 µM	> 25			> 25 µM	> 25 µM	> 25	> 25	> 25	> 25 µM	> 25	> 25 µM	> 25 µM	> 25 µM
C=C1C(=O)O[C@H]2[C@H]1CC/C(COC(=O)c1cc3ccccc3o1)=C\CC[C@@]1(C)O[C@@H]21	2.47 µM	5.84	2.48	7.07	0.395	2.18	1.64 µM	3.55	1.98	4.75 µM	0.485 µM	1.72 µM	5.9	19.1	1.78	4.12 µM	1.63	3.16 µM	1.46 µM	2.79 µM
COc1ccc(/C(COc2ccc3c(=O)c(-c4ccccc4)coc3c2)=N\O)cc1	3.09 µM	9.15	8.52	33.7	3.16	> 50.9	0.698 µM	18.5	19.3	62.8 µM	0.987 µM	10.8 µM	2.59	25.5	1.65	16.4 µM	1.1	> 39.6 µM	9.02 µM	27.7 µM
CNC/C(Cl)=N/S(=O)(=O)c1ccc(C)cc1		16.2		29.9		23.7		28.5		26.2 µM		25.5 µM		32.4		28.1 µM		20.5 µM		36.6 µM
COc1cc2ncn(-c3cc(O[C@@H](C)c4ccccc4Cl)c(C(N)=O)s3)c2cc1OC	2.55 µM	> 25	0.744	> 25	0.111	> 25	1.19 µM	> 25	1.57	> 25 µM	0.513 µM	> 17.4 µM	1.25	> 25	3.05	> 25 µM	1.84	> 25 µM	5.3 µM	> 25 µM
O=C(O)CCCSc1ccccc1		> 100		> 100		> 100		> 100		> 100 µM		> 100 µM		> 100		> 100 µM		> 100 µM		> 100 µM
COc1cccc(/C=C/[N+](=O)[O-])c1	1.93 µM	3.51	12.8	26.6	1.2	3.93	6.41 µM	20.8	3.21	12.6 µM	1.96 µM	4.08 µM	3.07	13.4	15.2	37.2 µM	4.04	14.8 µM	1.68 µM	3.4 µM
Cc1cccc(C)c1NC(=O)C(=O)CC(=O)/C=C/c1ccccc1		> 100		> 100		> 100		> 100		> 100 µM		> 100 µM		> 100		> 100 µM		> 100 µM		> 100 µM
Cc1c2oc3c(C)ccc(C(=O)NC4C(=O)NC(C(C)C)C(=O)N5CCCC5C(=O)N(C)CC(=O)N(C)C(C(C)O)C(=O)OC4C)c3nc-2c(C(=O)NC2C(=O)NC(C(C)C)C(=O)N3CCCC3C(=O)N(C)CC(=O)N(C)C(C(C)O)C(=O)OC2C)c(N)c1=O (configuration not stated) (I: TVP[Sar][NMeT] / II: TVP[Sar][NMeT]; ester I:1-I:C, II:1-II:C; linker I:N-II:N via Actinocin(9to1); configuration not given here)	3.64 µM and > 1 µM	> 29.3		> 1		> 1	3.53 µM and > 1 µM	> 69.9		18.3 µM and > 1 µM	2.23 µM and > 1 µM	16.6 µM and > 1 µM		> 100		42.8 µM and > 1 µM		7.27 µM and > 1 µM	2.99 µM and > 1 µM	24.8 µM and > 1 µM
NC[C@H]1Nc2ccccc2[C@@H](O)C1O (some centres not stated)		> 100		> 100		> 100		> 100		> 100 µM		> 100 µM		> 100		> 100 µM		> 100 µM		> 100 µM
